Measured values as given in US9440969B2, “Compounds and methods for kinase modulation, and indications therefor” (PLEXXIKON INC., priority 2009, dated 2016).

Assays:
[1] = molecular target: c-Raf-1 (Homo sapiens, UniProt P04049); test: c-Raf-1 kinase activity assay (AlphaScreen, biotin-MEK1 substrate); conditions: 100 μM ATP, 100 nM biotin-MEK1, 45 minutes at room temperature; read-out: Biochemical activity (IC50 μM) c-Raf-1
Experimental: (§1) Assays for biochemical and cell based activity are known in the art, for example, as described in PCT publication WO 2007/002433, the disclosure of which is hereby incorporated by reference as it relates to such assays. For example, the biochemical activity IC50 values are determined with respect to inhibition of B-Raf kinase activity, c-Raf-1 kinase activity, or B-Raf V600E kinase activity, where inhibition of phosphorylation of a peptide substrate is measured as a function of compound concentration. Compounds to be tested are diluted in dimethyl sulfoxide to a concentration of 0.1 mM. These are serially diluted 15 μL into 30 μL of dimethyl sulfoxide seven times in 96 well plates for a total of 8 dilution points, and for each dilution point 1 μL is added to a well of an assay plate. Plates are prepared such that each well in a 384 well plate contains 1 μL of compound in 10 μL, volume with 0.1 ng Raf enzyme (i.e. any of B-Raf, c-Raf-1 or B-Raf V600E, Upstate Biotechnology or prepared by methods known to one of skill in the art), 50 mM HEPES, pH 7.0, 50 mM NaCl, 2 mM MgCl2, 1 mM MnCl2, 0.01% Tween-20, 1 mM DTT, and 100 nM biotin-MEK1 as substrate. The reaction is started with addition of 10 μL of 200 μM ATP (i.e. final 100 μM ATP). After incubation of the kinase reaction for 45 minutes at room temperature, 5 μL/well of Stop Solution is added (25 mM Hepes pH 7.5, 100 mM EDTA, 0.01% BSA with donor beads (Streptavidin coated beads, Perkin Elmer), acceptor beads (Protein A coated, Perkin Elmer), and anti phosphor MEK1/2 antibody (CellSignal), each at final concentration 10 μg/mL). The plates are incubated for 3 hours at room temperature and read on Envision reader (Perkin Elmer). Phosphorylation of Mek1 results in binding of the anti-phosphor-MEK1/2 antibody and association of the donor and acceptor beads such that signal correlates with kinase activity. The signal vs. compound concentration is used to determine the IC50.

[2] = molecular target: B-Raf V600E (Homo sapiens, UniProt P15056, V600E); test: B-Raf V600E kinase activity assay (AlphaScreen, biotin-MEK1 substrate); conditions: 100 μM ATP, 100 nM biotin-MEK1, 45 minutes at room temperature, read-out: Biochemical activity (IC50 μM) V600E
Experimental: as §1

[3] = molecular target: B-Raf (Homo sapiens, UniProt P15056); test: B-Raf kinase activity assay (AlphaScreen, biotin-MEK1 substrate); conditions: 100 μM ATP, 100 nM biotin-MEK1, 45 minutes at room temperature; read-out: Biochemical activity (IC50 μM) B-Raf
Experimental: as §1

[4] = Relative solubility by turbidity in aqueous buffers (pH 1.5, 4.5, 6.8, 7.4); format: physicochemical; conditions: for turbidity threshold (L, M, H) 1.4: pH 1.5 buffer (SGF); for turbidity threshold (L, M, H) 4.5: pH 4.5 buffer (SIF); for turbidity threshold (L, M, H) 6.8: pH 6.8 buffer (SIF); for turbidity threshold (L, M, H) 7.4: pH 7.4 buffer (HEPES)
Experimental: As an indication of relative solubility, the turbidity of compounds in aqueous solutions is assessed. To assess possible compound properties in different physiological compartments, such as stomach, intestine, and blood, a series of aqueous buffers with varying pH is used. Thus each compound is diluted into four different physiologically relevant buffers and solution turbidity is measured by spectrophotometry.
Compounds are dissolved at a concentration of 25 mM in dimethyl sulfoxide, then serially diluted 1:1 into a 96 well plate, diluting 10 times in pure dimethyl sulfoxide, with the final well of each row a dimethyl sulfoxide blank. In an assay plate, 99 μL of appropriate buffer is added to each well, and 1 μL of each sample dilution is added to the buffer, achieving a range of final total concentrations in aqueous solutions having different pH. The buffers used are Simulated Gastric Fluid (SGF-pH 1.5) 0.5M NaCl, pH 1.5; Simulated Intestinal fluid (SIF-pH 4.5 and pH 6.8) 0.05M NaH2PO4, pH 4.5 and 6.8; and Hepes Buffer (HEPES-pH 7.4) 10 mM HEPES, 150 mM NaCl, pH 7.4. Control compounds pyrene, estriol and propranolol HCl are also assessed. Plates are spun and then mixed for 1 minute, and the absorbance is read using a Tecan Safire II to read wavelengths in the visible range (490, 535, and 650 nm) at four locations per well, reflecting the degree of turbidity present. The average optical density for each wavelength in each well is graphed vs. compound concentration, and the concentration at which the curve crosses a threshold O.D. of 0.01 for each wavelength is reported as the endpoint turbidity assay result. The average of the three wavelengths is used to compare turbidity of compounds. Compounds are considered to have low solubility if the threshold concentration is <31.3 μM, moderate solubility if the threshold concentration is 31.3 μM to 250 μM, and high solubility if the threshold concentration is >250 μM.
The following table indicates the relative solubility (L=low, M=moderate, H=high) based on turbidity threshold concentration at each pH for exemplary compounds according to the invention: […]

Chain of B-Raf (P15056 whole entry): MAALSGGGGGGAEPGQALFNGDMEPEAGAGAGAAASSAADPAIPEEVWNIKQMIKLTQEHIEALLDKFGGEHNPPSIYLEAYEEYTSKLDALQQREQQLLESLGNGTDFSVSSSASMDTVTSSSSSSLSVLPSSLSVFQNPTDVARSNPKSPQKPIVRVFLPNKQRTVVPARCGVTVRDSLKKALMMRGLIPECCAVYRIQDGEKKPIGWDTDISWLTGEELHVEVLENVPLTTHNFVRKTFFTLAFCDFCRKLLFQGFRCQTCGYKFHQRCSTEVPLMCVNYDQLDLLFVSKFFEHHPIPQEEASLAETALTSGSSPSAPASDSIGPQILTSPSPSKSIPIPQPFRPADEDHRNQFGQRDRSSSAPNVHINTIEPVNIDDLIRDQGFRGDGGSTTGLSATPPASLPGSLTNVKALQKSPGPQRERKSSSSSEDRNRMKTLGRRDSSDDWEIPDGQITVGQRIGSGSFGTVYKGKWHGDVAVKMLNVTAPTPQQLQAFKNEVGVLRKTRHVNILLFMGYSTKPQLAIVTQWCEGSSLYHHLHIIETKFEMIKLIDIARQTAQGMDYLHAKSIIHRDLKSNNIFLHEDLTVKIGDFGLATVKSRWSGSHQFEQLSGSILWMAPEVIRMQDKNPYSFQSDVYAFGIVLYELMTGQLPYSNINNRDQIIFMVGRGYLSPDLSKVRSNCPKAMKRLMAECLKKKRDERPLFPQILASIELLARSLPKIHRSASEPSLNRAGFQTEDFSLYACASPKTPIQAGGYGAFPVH
Chain of c-Raf-1 (P04049 whole entry Y340D/Y341D, form open): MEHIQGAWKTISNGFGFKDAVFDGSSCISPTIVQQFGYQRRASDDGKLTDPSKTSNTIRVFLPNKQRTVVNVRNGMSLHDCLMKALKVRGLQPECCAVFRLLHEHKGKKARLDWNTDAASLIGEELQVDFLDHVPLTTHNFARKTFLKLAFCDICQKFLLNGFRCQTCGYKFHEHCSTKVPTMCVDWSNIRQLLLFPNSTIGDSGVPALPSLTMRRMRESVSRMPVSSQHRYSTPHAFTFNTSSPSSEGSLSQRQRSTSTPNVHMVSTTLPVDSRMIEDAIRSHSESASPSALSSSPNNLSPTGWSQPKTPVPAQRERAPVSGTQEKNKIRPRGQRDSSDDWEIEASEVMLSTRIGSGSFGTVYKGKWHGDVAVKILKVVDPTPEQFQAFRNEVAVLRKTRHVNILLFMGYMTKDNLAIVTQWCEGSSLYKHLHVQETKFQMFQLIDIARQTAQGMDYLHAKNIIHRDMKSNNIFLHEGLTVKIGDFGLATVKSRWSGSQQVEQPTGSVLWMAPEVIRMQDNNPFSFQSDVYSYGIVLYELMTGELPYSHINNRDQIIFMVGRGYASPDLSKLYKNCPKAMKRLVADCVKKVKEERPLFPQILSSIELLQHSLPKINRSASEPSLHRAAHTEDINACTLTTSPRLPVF
Chain of B-Raf V600E (P15056 whole entry V600E): as the sequence (P15056 whole entry) above, with V600E counted along it

Row | SMILES | IC50 [1] [µM] | IC50 [2] [µM] | IC50 [3] [µM] | turbidity threshold (L, M, H) 1.4 [4] | turbidity threshold (L, M, H) 4.5 [4] | turbidity threshold (L, M, H) 6.8 [4] | turbidity threshold (L, M, H) 7.4 [4]
1 | COc1ncc(-c2cnc3[nH]cc(C(=O)c4c(F)ccc(NS(=O)(=O)c5cc(F)ccc5F)c4F)c3c2)c(OC)n1 [P-1501, N-{3-[5-(2,4-Dimethoxy-pyrimidin-5-yl)-1H-pyrrolo[2,3-b]pyridine-3-carbonyl]-2,4-difluoro-phenyl}-2,5-difluoro-benzenesulfonamide] | < 0.1 | < 0.1 | < 0.1 | L (low solubility if the threshold concentration is <31.3 μM) | L (low solubility if the threshold concentration is <31.3 μM) | L (low solubility if the threshold concentration is <31.3 μM) | L (low solubility if the threshold concentration is <31.3 μM)
2 | Cc1cc(-c2cnc3[nH]cc(C(=O)c4c(F)ccc(NS(=O)(=O)c5cc(F)ccc5F)c4F)c3c2)n(C)n1 [P-1010, N-{3-[5-(2,5-Dimethyl-2H-pyrazol-3-yl)-1H-pyrrolo[2,3-b]pyridine-3-carbonyl]-2,4-difluoro-phenyl}-2,5-difluoro-benzenesulfonamide] | < 0.1 | < 0.1 | < 0.1 | M (moderate solubility if the threshold concentration is 31.3 μM to 250 μM) | L (low solubility if the threshold concentration is <31.3 μM) | L (low solubility if the threshold concentration is <31.3 μM) | M (moderate solubility if the threshold concentration is 31.3 μM to 250 μM)
3 | CONC(=O)c1ccc(-c2cnc3[nH]cc(C(=O)c4c(F)ccc(NS(=O)(=O)c5cc(F)ccc5F)c4F)c3c2)cc1 [P-1705, 4-{3-[3-(2,5-Difluoro-benzenesulfonylamino)-2,6-difluoro-benzoyl]-1H-pyrrolo[2,3-b]pyridin-5-yl}-N-methoxy-benzamide] | < 0.1 | < 0.1 | < 0.1 | M (moderate solubility if the threshold concentration is 31.3 μM to 250 μM) | L (low solubility if the threshold concentration is <31.3 μM) | L (low solubility if the threshold concentration is <31.3 μM) | L (low solubility if the threshold concentration is <31.3 μM)
4 | COc1ccc(-c2cnc3[nH]cc(C(=O)c4c(F)ccc(NS(=O)(=O)c5cc(F)ccc5F)c4F)c3c2)c(OC)n1 [P-1406, N-{3-[5-(2,6-Dimethoxy-pyridin-3-yl)-1H-pyrrolo[2,3-b]pyridine-3-carbonyl]-2,4-difluoro-phenyl}-2,5-difluoro-benzenesulfonamide] | < 0.1 | < 0.1 | < 0.1 | L (low solubility if the threshold concentration is <31.3 μM) | L (low solubility if the threshold concentration is <31.3 μM) | L (low solubility if the threshold concentration is <31.3 μM) | L (low solubility if the threshold concentration is <31.3 μM)
5 | CN(C)c1ncc(-c2cnc3[nH]cc(C(=O)c4c(F)ccc(NS(=O)(=O)c5cc(F)ccc5F)c4F)c3c2)cn1 [P-1502, N-{3-[5-(2-Dimethylamino-pyrimidin-5-yl)-1H-pyrrolo[2,3-b]pyridine-3-carbonyl]-2,4-difluoro-phenyl}-2,5-difluoro-benzenesulfonamide] | < 0.1 | < 0.1 | < 0.1 | L (low solubility if the threshold concentration is <31.3 μM) | L (low solubility if the threshold concentration is <31.3 μM) | L (low solubility if the threshold concentration is <31.3 μM) | L (low solubility if the threshold concentration is <31.3 μM)
6 | CONC(=O)c1cccc(-c2cnc3[nH]cc(C(=O)c4c(F)ccc(NS(=O)(=O)c5cc(F)ccc5F)c4F)c3c2)c1 [P-1704, 3-{3-[3-(2,5-Difluoro-benzenesulfonylamino)-2,6-difluoro-benzoyl]-1H-pyrrolo[2,3-b]pyridin-5-yl}-N-methoxy-benzamide] | < 0.1 | < 0.1 | < 0.1 | L (low solubility if the threshold concentration is <31.3 μM) | L (low solubility if the threshold concentration is <31.3 μM) | L (low solubility if the threshold concentration is <31.3 μM) | L (low solubility if the threshold concentration is <31.3 μM)
7 | Cn1ccc(-c2cnc3[nH]cc(C(=O)c4c(F)ccc(NS(=O)(=O)c5cc(F)ccc5F)c4F)c3c2)n1 [P-1011, N-{2,4-Difluoro-3-[5-(1-methyl-1H-pyrazol-3-yl)-1H-pyrrolo[2,3-b]pyridine-3-carbonyl]-phenyl}-2,5-difluoro-benzenesulfonamide] | < 0.1 | < 0.1 | < 0.1 | L (low solubility if the threshold concentration is <31.3 μM) | L (low solubility if the threshold concentration is <31.3 μM) | M (moderate solubility if the threshold concentration is 31.3 μM to 250 μM) | M (moderate solubility if the threshold concentration is 31.3 μM to 250 μM)
